Columns and labels:
human P2X2/3 receptor = target: T1, human P2X2/3 receptor (Homo sapiens, UniProt P56373+Q9UBL9); assay: P2X3/P2X2/3 FLIPR (Fluorometric Imaging Plate Reader) Assay, P2X2/3; format: cell-based; conditions: CHO-K1 cells transfected with human P2X2/3; agonist α,β-meATP 5 μM; Table 1; read-out: P2X2/3 pKi (converted)
T1 construct: expressed in transfected cells; host or cells: CHO-K1
T1 sequence (Q9UBL9 1-471): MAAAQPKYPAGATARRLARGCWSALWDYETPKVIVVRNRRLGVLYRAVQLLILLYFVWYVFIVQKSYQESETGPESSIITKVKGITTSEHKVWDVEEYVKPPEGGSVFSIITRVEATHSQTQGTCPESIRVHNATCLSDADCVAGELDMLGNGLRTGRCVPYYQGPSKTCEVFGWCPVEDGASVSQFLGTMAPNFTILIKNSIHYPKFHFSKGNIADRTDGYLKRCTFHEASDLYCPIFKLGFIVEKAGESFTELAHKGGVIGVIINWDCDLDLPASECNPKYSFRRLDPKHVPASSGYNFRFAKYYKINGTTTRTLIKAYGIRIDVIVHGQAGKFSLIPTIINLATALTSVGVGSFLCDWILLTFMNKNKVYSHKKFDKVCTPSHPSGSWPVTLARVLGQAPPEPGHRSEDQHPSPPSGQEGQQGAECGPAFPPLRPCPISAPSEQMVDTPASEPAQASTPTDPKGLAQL
T1 sequence (P56373 1-397): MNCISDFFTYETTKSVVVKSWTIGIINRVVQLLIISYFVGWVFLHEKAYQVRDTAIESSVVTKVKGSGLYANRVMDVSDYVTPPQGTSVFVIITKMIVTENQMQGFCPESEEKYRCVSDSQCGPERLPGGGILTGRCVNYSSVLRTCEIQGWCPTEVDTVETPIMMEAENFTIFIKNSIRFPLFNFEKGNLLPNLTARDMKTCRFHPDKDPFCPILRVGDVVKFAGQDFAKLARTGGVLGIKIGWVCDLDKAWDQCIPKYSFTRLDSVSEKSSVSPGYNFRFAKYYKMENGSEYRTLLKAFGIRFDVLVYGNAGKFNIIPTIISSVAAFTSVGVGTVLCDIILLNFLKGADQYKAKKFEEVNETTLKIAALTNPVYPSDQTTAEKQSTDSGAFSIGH
Protocol: (§1) P2X3/P2X2/3 FLIPR (Fluorometric Imaging Plate Reader) Assay
(§2) CHO-K1 cells were transfected with cloned rat P2X3 or human P2X2/3 receptor subunits and passaged in flasks. 18-24 hours before the FLIPR experiment, cells were released from their flasks, centrifuged, and resuspended in nutrient medium at 2.5×10^5 cells/ml. The cells were aliquoted into black-walled 96-well plates at a density of 50,000 cells/well and incubated overnight in 5% CO2 at 37° C. On the day of the experiment, cells were washed in FLIPR buffer (calcium- and magnesium-free Hank's balanced salt solution, 10 mM HEPES, 2 mM CaCl2, 2.5 mM probenecid; FB). Each well received 100 μl FB and 100 μl of the fluorescent dye Fluo-3 AM [2 μM final conc.]. After a 1 hour dye loading incubation at 37° C., the cells were washed 4 times with FB, and a final 75 μl/well FB was left in each well.
(§3) Test compounds (dissolved in DMSO at 10 mM and serially diluted with FB) or vehicle were added to each well (25 μl of a 4× solution) and allowed to equilibrate for 20 minutes at room temperature. The plates were then placed in the FLIPR and a baseline fluorescence measurement (excitation at 488 nm and emission at 510-570 nm) was obtained for 10 seconds before a 100 μl/well agonist or vehicle addition. The agonist was a 2× solution of α,β-meATP producing a final concentration of 1 μM (P2X3) or 5 μM (P2X2/3). Fluorescence was measured for an additional 2 minutes at 1 second intervals after agonist addition. A final addition of ionomycin (5 μM, final concentration) was made to each well of the FLIPR test plate to establish cell viability and maximum fluorescence of dye-bound cytosolic calcium. Peak fluorescence in response to the addition of α,β-meATP (in the absence and presence of test compounds) was measured and inhibition curves generated using nonlinear regression. PPADS, a standard P2X antagonist, was used as a positive control.

rat P2X3 receptor = target: T2, rat P2X3 receptor (Rattus norvegicus, UniProt P49654); assay: P2X3/P2X2/3 FLIPR (Fluorometric Imaging Plate Reader) Assay, P2X3; format: cell-based; conditions: for Ki: CHO-K1 cells transfected with rat P2X3, agonist α,β-meATP 1 μM, Table 1, read-out: P2X3 pKi (converted)
T2 construct: expressed in transfected cells; host or cells: CHO-K1
T2 sequence (P49654 1-397): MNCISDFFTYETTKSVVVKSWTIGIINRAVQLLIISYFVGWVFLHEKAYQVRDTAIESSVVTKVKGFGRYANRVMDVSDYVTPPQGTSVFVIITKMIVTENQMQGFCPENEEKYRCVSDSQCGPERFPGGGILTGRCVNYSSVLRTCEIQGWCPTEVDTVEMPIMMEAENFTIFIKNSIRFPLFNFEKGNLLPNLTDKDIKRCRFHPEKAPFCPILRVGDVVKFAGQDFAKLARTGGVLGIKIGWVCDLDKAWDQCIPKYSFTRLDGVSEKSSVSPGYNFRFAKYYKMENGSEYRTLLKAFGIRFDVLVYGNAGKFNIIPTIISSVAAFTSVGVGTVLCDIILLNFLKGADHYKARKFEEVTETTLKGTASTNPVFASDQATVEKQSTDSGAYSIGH
Protocol: as §1, §2, §3

| SMILES | Ki (human P2X2/3 receptor) | Ki (rat P2X3 receptor) | IC50 (rat P2X3 receptor; text b666, CHO-K1 cells, α,β-meATP 1 μM, read-out: pIC50 for the P2X3 receptor (converted)) |
| --- | --- | --- | --- |
| Cc1ccc(-c2cc(C(=O)NC3CC3)cc(-n3ncnc3CC(C)C)c2)nc1 [Compound 130, N-Cyclopropyl-3-(5-isobutyl-[1,2,4]triazol-1-yl)-5-(5-methyl-pyridin-2-yl)-benzamide] | 182 nM | 4.27 nM | – |
| COC(C)c1ncnn1-c1cc(C(=O)N[C@@H](C)CO)cc(-c2ccc(C)cc2)c1 (stereo partly drawn) [Compound 47, 5-[5-(1-Methoxy-ethyl)-[1,2,4]triazol-1-yl]-4′-methyl-biphenyl-3-carboxylic acid ((S)-2-hydroxy-1-methyl-ethyl)-amide] | 2040 nM | 4.68 nM | – |
| Cc1ccc(-c2cc(C(=O)N[C@@H](C)CO)cc(-n3ncnc3C(C)C)c2)c(F)c1 [Compound 35, 2′-Fluoro-5-(5-isopropyl-[1,2,4]triazol-1-yl)-4′-methyl-biphenyl-3-carboxylic acid ((S)-2-hydroxy-1-methyl-ethyl)-amide] | 417 nM | 1.7 nM | ~1.7 nM |
| CCCc1ncnn1-c1cc(C(=O)NC2CC2)cc(-c2ccc(C)cn2)c1 [Compound 113, N-Cyclopropyl-3-(5-methyl-pyridin-2-yl)-5-(5-propyl-[1,2,4]triazol-1-yl)-benzamide] | 1580 nM | 4.57 nM | – |
| COC(C)c1ncnn1-c1cc(C(=O)N[C@@H](C)CO)cc(-c2ccc(C)cn2)c1 (stereo partly drawn) [Compound 57, N-(2-Hydroxy-1-methyl-ethyl)-3-[5-(1-methoxy-ethyl)-[1,2,4]triazol-1-yl]-5-(5-methyl-pyridin-2-yl)-benzamide] | 7940 nM | 74.1 nM | – |
| Cc1ccc(-c2cc(-n3ncnc3C(F)(F)F)cc(C(=O)NC(C)c3cnccn3)c2F)nc1 (stereo not drawn) [Compound 168, 2-Fluoro-3-(5-methyl-pyridin-2-yl)-N-(1-pyrazin-2-yl-ethyl)-5-(5-trifluoromethyl-[1,2,4]triazol-1-yl)-benzamide] | 2690 nM | 13.5 nM | – |
| Cc1ccc(-c2cc(C(=O)NC(C)CO)cc(-n3ncnc3C(C)C)c2)cc1 (stereo not drawn) [Compound 16, 5-(5-Isopropyl-[1,2,4]triazol-1-yl)-4′-methyl-biphenyl-3-carboxylic acid (2-hydroxy-1-methyl-ethyl)-amide] | 295 nM | 3.55 nM | – |
| Cc1ccc(-c2cc(C(=O)NC(C)c3cnccn3)cc(-n3nncc3C(C)C)c2)c(F)c1 (stereo not drawn) [Compound 25, 2′-Fluoro-5-(5-isopropyl-[1,2,3]triazol-1-yl)-4′-methyl-biphenyl-3-carboxylic acid (1-pyrazin-2-yl-ethyl)-amide] | 72.4 nM | 12 nM | – |
| Cc1ccc(-c2cc(C(=O)NCc3cnc(C)cn3)cc(-n3ncnc3C(F)(F)F)c2)cc1 [Compound 67, 4′-Methyl-5-(5-trifluoromethyl-[1,2,4]triazol-1-yl)-biphenyl-3-carboxylic acid (5-methyl-pyrazin-2-ylmethyl)-amide] | 49 nM | 6.31 nM | – |
| Cc1ccc(-c2cc(C(=O)NC3CC3)cc(-n3ncnc3C(C)(F)F)c2)nc1 [Compound 72, N-Cyclopropyl-3-[5-(1,1-difluoro-ethyl)-[1,2,4]triazol-1-yl]-5-(5-methyl-pyridin-2-yl)-benzamide] | 2510 nM | 9.12 nM | – |
| CCc1ncnn1-c1cc(C(=O)NC(C)c2cnccn2)cc(-c2ccc(C)cn2)c1 (stereo not drawn) [Compound 128, 3-(5-Ethyl-[1,2,4]triazol-1-yl)-5-(5-methyl-pyridin-2-yl)-N-(1-pyrazin-2-yl-ethyl)-benzamide] | 257 nM | 10.2 nM | – |
| Cc1ccc(-c2cc(C(=O)NCc3cnc(C)cn3)cc(-n3ncnc3C(F)(F)F)c2F)nc1 [Compound 164, 4-Fluoro-N-(5-methyl-pyrazin-2-ylmethyl)-3-(5-methyl-pyridin-2-yl)-5-(5-trifluoromethyl-[1,2,4]triazol-1-yl)-benzamide] | 302 nM | 11.5 nM | – |
| Cc1ccc(-c2cc(C(=O)NCc3cnc(C)cn3)cc(-n3ncnc3CC(C)(C)O)c2)nc1 [Compound 156, 3-[5-(2-Hydroxy-2-methyl-propyl)-[1,2,4]triazol-1-yl]-N-(5-methyl-pyrazin-2-ylmethyl)-5-(5-methyl-pyridin-2-yl)-benzamide] | 10000 nM | 123 nM | – |
| COC[C@@H](C)NC(=O)c1cc(-c2ccc(C)cc2)cc(-n2nc(C)nc2C(C)C)c1 [Compound 27, 5-(5-Isopropyl-3-methyl-[1,2,4]triazol-1-yl)-4′-methyl-biphenyl-3-carboxylic acid ((R)-2-methoxy-1-methyl-ethyl)-amide] | – | 100 nM | – |
| Cc1ccc(-c2cc(C(=O)N[C@@H](C)CO)cc(-n3ncnc3CC(F)F)c2)nc1 [Compound 146, 3-[5-(2,2-Difluoro-ethyl)-[1,2,4]triazol-1-yl]-N-((S)-2-hydroxy-1-methyl-ethyl)-5-(5-methyl-pyridin-2-yl)-benzamide] | – | 17.8 nM | – |
| COCCc1nc(C)nn1-c1cc(C(=O)NCc2cnc(C)cn2)cc(-c2ccc(C)cn2)c1 [Compound 154, 3-[5-(2-Methoxy-ethyl)-3-methyl-[1,2,4]triazol-1-yl]-N-(5-methyl-pyrazin-2-ylmethyl)-5-(5-methyl-pyridin-2-yl)-benzamide] | – | 151 nM | – |
| COCC(C)NC(=O)c1cc(-c2ccc(C)cc2)cc(-n2ccnn2)c1 (stereo not drawn) [Compound 1, 4′-Methyl-5-[1,2,3]triazol-1-yl-biphenyl-3-carboxylic acid (2-methoxy-1-methyl-ethyl)-amide] | – | 1820 nM | – |
| Cc1ccc(-c2cc(C(=O)N[C@@H](C)CO)cc(-n3ncnc3C(F)(F)F)c2F)nc1 [Compound 165, 4-Fluoro-N-((S)-2-hydroxy-1-methyl-ethyl)-3-(5-methyl-pyridin-2-yl)-5-(5-trifluoromethyl-[1,2,4]triazol-1-yl)-benzamide] | – | 74.1 nM | – |
| COCC(C)NC(=O)c1cc(-c2ccc(C)cc2)cc(-n2nccn2)c1 (stereo not drawn) [Compound 3, 4′-Methyl-5-[1,2,3]triazol-2-yl-biphenyl-3-carboxylic acid (2-methoxy-1-methyl-ethyl)-amide] | – | 2950 nM | – |
| Cc1ccc(-c2cc(C(=O)NC3CC3)cc(-n3ncnc3C)c2)nc1 [Compound 68, N-Cyclopropyl-3-(5-methyl-pyridin-2-yl)-5-(5-methyl-[1,2,4]triazol-1-yl)-benzamide] | – | 170 nM | – |
| CCn1cnnc1-c1cc(C(=O)N[C@@H](C)CO)cc(-c2ccc(C)cc2)c1 [Compound 42, 5-(4-Ethyl-4H-[1,2,4]triazol-3-yl)-4′-methyl-biphenyl-3-carboxylic acid ((S)-2-hydroxy-1-methyl-ethyl)-amide] | – | 117 nM | – |
| Cc1ccc(-c2cc(C(=O)NC(C)c3cnccn3)cc(-n3ncnc3C(F)(F)F)c2F)nc1 (stereo not drawn) [Compound 170, 4-Fluoro-3-(5-methyl-pyridin-2-yl)-N-(1-pyrazin-2-yl-ethyl)-5-(5-trifluoromethyl-[1,2,4]triazol-1-yl)-benzamide] | – | 3.72 nM | – |
